{
  "source": "patent US20170029531A1",
  "about": "“INHIBITION OF LACTATE DEHYDROGENASE 5 (LDH-5) BINDING, INCORPORATION, INTERNALIZATION AND/OR ENDOCYTOSIS TO IMMUNE CELLS” (Seattle Children's Hospital (dba Seattle Children's …, priority 2014, published 2017)",
  "key": {"[1]": {"system": "glioblastoma cell line U87", "experiment": "IL-6 gene expression in glioblastoma cell line U87", "type": "cell-based"}, "T cells and NK cells": {"system": "T cells and NK cells", "experiment": "Internalization of LDH-A488 by T cells and NK cells of human PBMC", "type": "cell-based", "conditions": "10 ug/mL LDH-A488, 30 min, 37° C., IL-2 cultured PBMC", "protocol": "FIG. 33. Human PBMC were isolated from healthy human blood via Ficoll gradient. PBMC were cultured for 24 h in RPMI+10% FBS supplemented with 1000 U/mL IL-2. Experimental wells were pulsed with 10 ug/mL LDH-A488 for 30 min (control wells received no LDH) at 37° C. Cells were treated for 2 min with 0.5M acetic acid+150 mM NaCl (pH 2.5), followed by 4 subsequent washes in RPMI+10% FBS. Cells were stained with antibodies directed against CD4, CD8, CD28, and CD95 to delineate T cell subsets (CD28+CD95−, Naïve, Na; CD28+CD95+, central memory, CM; CD28−CD95+, effector memory, EM) or against CD3, CD56, and CD16 to delineate NK cell subsets (CD3-CD56hiCD16−; CD3−CD56dimCD16−; CD3−CD56dimCD16+). Frequency and MFI of A488 was corrected against control (no LDH pulse). Shown are 10 data points: 2 patients on 2 different days (in duplicate), and 1 patient on one day in duplicate.\nHuman PBMC were isolated from healthy human blood via Ficoll gradient. PBMC were cultured for 24 h in RPMI+10% FBS supplemented with 1000 U/mL IL-2. Experimental wells were pulsed with 10 ug/mL LDH-A488 for 30 min (control wells received no LDH) at 37° C. Cells were treated for 2 min with 0.5M acetic acid+150 mM NaCl (pH 2.5), followed by 4 subsequent washes in RPMI+10% FBS. […]"}, "[2]": {"system": "monocytes from healthy donors", "experiment": "NKG2D ligand (MICA, MICB, ULBP-1) mRNA induction in monocytes from healthy donors (MHD), qPCR", "type": "cell-based, human", "source_text": "FIG. 2. Biochemical purification of tumor-derived Lactate Dehydrogenase, expression in glioma cell lines and verification of LDH-mediated induction of NKG2D ligands on monocytes. (Panel A) Protein purification strategy. […] of U87 glioblastoma cell line supernatant were subjected to ammonium sulfate precipitation. Active fractions were passed over a phenyl Sepharose column and active fractions were then subjected to size exclusion (Superdex 200), followed by ion exchange (MonoS) before Mass Spectroscopy (MS) analysis. (Panel B) Following separation by chromatography, fractions were dialyzed into PBS and cultured with MHD (healthy monocytes) for 18 hours. Whole cell mRNA was reverse transcribed, and induction of MICB and ULBP-1 was analyzed relative to media alone controls. Western blot analysis using a monoclonal antibody to LDH-5 (ab101562) was performed on […] of total protein to confirm the presence of LDH-5 in the active fractions. (Panel C) mRNA isolated from PBMC of healthy donors, 293T cells (as negative controls), and U87, U251, and SF767 glioma cell lines were analyzed for expression of LDHA and LDHB by qPCR. (Panel D) A 1:10 dilution of fresh, unfrozen glioblastoma cell line supernatants was analyzed for total LDH enzymatic activity and expressed as OD 495 nm. (Panel E) Validation of LDH induction of NKG2D ligands in monocytes. Six hundred twenty five U/L of purified, native LDH-5, fresh U87 supernatant, or fresh U87 supernatant in the presence of 100 mM sodium oxamate (NaOx) were cultured with MHD. Eighteen hours later, mRNA was isolated and analyzed for MICA, MICB, and ULBP-1 by qPCR. Values represent induction relative to MHD cultured in media alone. (Panel F) Fresh U87 supernatant, 625 U/L of purified, native LDH-5, LDH-5+0.5 mM Pyruvate (Pyr), or LDH-5+0.5 mM pyruvate and 100 mM NaOx were cultured with MHD. Eighteen hours later, mRNA was isolated and analyzed for MICA, MICB and ULBP-1 by qPCR. Values represent induction relative to MHD cultured in media alone. (Panel G) MHD were cultured with native LDH-5 isolated from liver cells. Eighteen hours later, MICB (black bars) and ULBP-1 (gray bars) were measured by qPCR. (Panel H) Expression of NKG2D and NKp46 on primary human NK cells following a 12 hour incubation with LDH (50 ug/mL) or lactate (20 mM). Cells were surface stained with antibodies directed against CD3, CD56, NKG2D, and NKp46 and analyzed by flow cytometry. The expression level of NKG2D and NKp46 are plotted against CD56. (Panel I) Expression of CD107a on primary human NK cells following IL-2 (1000 U/ml) activation and a 6 hour incubation with LDH (50 ug/mL) or lactate (20 mM). Cells were surface stained with antibodies directed against CD3, CD56, and CD107a and analyzed by flow cytometry. Representative data are shown in the top panels, a summary of percent CD107a+NK cells is shown below. (Panel J) 293T cells were transiently transfected with a pcDNA3.1 (−) vector encoding either LDHA or LDHB, or both constructs. Supernatant was then cultured with CD14-positively selected MHD. Eighteen hours later, MICB and ULBP-1 were measured by qPCR. Values represent induction relative to monocytes cultured in media alone. *P<0.05, **P<0.01.\nFIG. 21. Purified native LDH5 or LDH1 was cultured with monocytes from healthy donors. Eighteen hours later, MICB and ULBP-1 were measured by qPCR. Values represent induction relative to monocytes cultured in medium alone. […]"}, "[3]": {"conditions": "156 U/L enzymatically active LDH5 from human liver, monocytes"}},
  "data": [
    {"substance": "LDH5: purified native lactate dehydrogenase isoenzyme 5, alpha only tetramer; fluorescently labeled in uptake tests", "values": [
      {"measurement": "IL-6 gene expression", "setting": "[1]", "value": "induces IL-6 gene expression"},
      {"measurement": "Internalization of LDH5 by T cells and NK cells", "setting": "T cells and NK cells", "value": "internalize"},
      {"measurement": "MICB gene expression compared with medium alone", "setting": "[2]; [3]", "value": 7.85, "unit": "fold induction"},
      {"measurement": "ULBP-1 gene expression compared with medium alone", "setting": "[2]; [3]", "value": 13.26, "unit": "fold induction"},
      {"measurement": "Lowest concentration of purified native LDH5 that induced transcription of MICB and ULBP-1", "setting": "[2]; monocytes from healthy donors, 18 h, qPCR, FIG. 2 panel G", "value": 156, "unit": "U/L"},
      {"measurement": "LDH5 concentration that induced a maximal increase in NKG2D ligand transcription", "setting": "[2]; monocytes, concentrations above this induced less transcription", "value": 625, "unit": "U/L"}
    ]}
  ]
}
